Here are results for 1 compound from patent US12390455B2, “EZH1/2 dual inhibitor-containing pharmaceutical composition to be used as a combination drug” (DAIICHI SANKYO COMPANY, LIMITED, priority 2018, dated 2025).

Common to all, as to experiment: Cell growth inhibitory activity, Compound A alone and combined with a second medical agent (CellTiter-Glo)
The test system of one assay is OCI-LY7. It is filed as cell-based. The conditions noted are these: OCI-LY7, DLBCL (GCB), EZH2 WT; 7 days culture then 3 days in assay plate. Here is the method: (§1) Cell strains listed in Table 1 and Table 2 were seeded in cell culture plates (for example, 6-well culture plates). DMSO solutions of Compound A diluted to different concentrations or DMSO alone were added such that the concentration of the solvent was 0.1%. The cells were cultured for 7 days. During the culturing, at intervals of about 3 days or 4 days depending on cell proliferation, subculturing was appropriately carried out. In the subculturing, DMSO solutions of Compound A diluted to different concentrations or DMSO alone were added to fresh medium at the same concentration as in initiation of the study.
(§2) The cell strains cultured in the above conditions were seeded in 96-well assay plates and the cells were cultured under a combination of the following conditions: • (i) DMSO solutions of Compound A diluted to different concentrations or DMSO alone were added such that the concentration of the solvent was 0.1%, and • (ii) DMSO solutions of a second medical agent or DMSO alone (if a preparation of a second medical agent was used, the preparation of the second medical agent was diluted with saline and used, or saline alone was used) was added such that the concentration of the solvent was 0.1%.
(§3) During the culturing period, the culture conditions were 37° C. and 5% CO2. On the day when the cells were seeded in a 96-well assay plate (day of seeding) and 3 days later (day of evaluation), a reaction was carried out using CellTiter-Glo 2.0 Assay reagent (Promega KK., #G9241) in accordance with the manual attached thereto. Thereafter, the amount of light emitted from each of the wells was measured by a plate reader (EnVision, PerkinElmer Co., Ltd.). Based on the luminescence of the sample addition group (TS) and the DMSO addition group (CS) for each treatment condition measured on the day of seeding; and the luminescence of the sample addition group (T) and the DMSO addition group (C) for each treatment condition measured on the day of evaluation, the cell growth inhibition rate was calculated in accordance with the following expression: Cell growth inhibition rate %={1−(T−TS)/(C−CS)}×100
(§4) Note that, if the number of cells of a sample addition group on the day of evaluation was lower than that of the day of seeding (T<TS), the cell-killing effect was calculated in accordance with the following expression: Cell-killing rate %=(T−TS)/TS×(−100)
(§5) The cell growth inhibition rate and cell killing rate obtained by calculation were fitted to the Sigmoid Emax model to calculate 100% cell growth inhibitory concentration of each of Compound A alone, a second medical agent alone, and Compound A-second medical agent combinations at different concentrations.
(§6) Based on the 100% cell growth inhibitory concentrations (Compound A alone: D1, second medical agent alone: D2, Compound A when used in combination: d1, second medical agent when used in combination: d2) calculated, the combination index (CI) was calculated in accordance with the following expression: CI=d1/D1+d2/D2 Determination was based on the criteria: if CI<1, a synergetic effect is present; if CI=1, an additive effect is present; and if CI>1, an antagonist effect is present (refer to Adv. Enzyme Regul. 1984, p. 2227-55).

The test system of another assay is SU-DHL-2. It is filed as cell-based. Particulars: SU-DHL-2, DLBCL (non-GCB), EZH2 WT; 7 days culture then 3 days in assay plate. Here is the method:
as §1, §2, §3, §4, §5, §6

The subject of a further assay is DB. It is filed as cell-based. The conditions noted are these: DLBCL (GCB), EZH2 MT (Y641N), 7 days culture then 3 days in assay plate. Here is the method:
as §1, §2, §3, §4, §5, §6

Another assay concerns OCI-AML5. Type of assay: cell-based. The conditions noted are these: OCI-AML5, AML; 7 days culture then 3 days in assay plate. Here is the method:
as §1, §2, §3, §4, §5, §6

The next assay has as its system REC-1. Type of assay: cell-based. Particulars: REC-1, MCL, EZH2 WT; 7 days culture then 3 days in assay plate. The method, then: as §1, §2, §3, §4, §5, §6
The next assay relates to DOHH-2. It is filed as cell-based. Particulars: DOHH-2, DLBCL (GCB), EZH2 WT; 7 days culture then 3 days in assay plate. The method, then: as §1, §2, §3, §4, §5, §6
The subject of another assay is OCI-LY19. Type of assay: cell-based. Particulars: OCI-LY19, DLBCL (GCB), EZH2 WT; 7 days culture then 3 days in assay plate. The method, then: as §1, §2, §3, §4, §5, §6
The test system of a further assay is GRANTA-519. Type of assay: cell-based. The conditions noted are these: GRANTA-519, MCL, EZH2 WT; 7 days culture then 3 days in assay plate. The method, then: as §1, §2, §3, §4, §5, §6
The next assay has as its system MOLM13. It is filed as cell-based. Particulars: MOLM13, AML, MLL-AF9, FLT3-ITD; 7 days culture then 3 days in assay plate. Here is the method:
as §1, §2, §3, §4, §5, §6

A further assay concerns OCI-AML3. It is filed as cell-based. The conditions noted are these: OCI-AML3, AML, NPM1mt, DNMT3Amt; 7 days culture then 3 days in assay plate. Here is the method: as §1, §2, §3, §4, §5, §6
Another assay relates to MOLM14. Type of assay: cell-based. The conditions noted are these: MOLM14, AML, MLL-AF9, FLT3-ITD; 7 days culture then 3 days in assay plate. The method, then: as §1, §2, §3, §4, §5, §6
The test system of another assay is OCI-AML2. It is filed as cell-based. The conditions noted are these: OCI-AML2, AML, MLL-AF6, DNMT3Amt, FLT3-ITD; 7 days culture then 3 days in assay plate. Here is the method: as §1, §2, §3, §4, §5, §6
A further assay has as its system JeKo-1. It is filed as cell-based. The conditions noted are these: JeKo-1, MCL, EZH2 WT; 7 days culture then 3 days in assay plate. The method, then: as §1, §2, §3, §4, §5, §6
A further assay concerns OCI-LY3. It is filed as cell-based. The conditions noted are these: OCI-LY3, DLBCL (non-GCB), EZH2 WT; 7 days culture then 3 days in assay plate. Here is the method: as §1, §2, §3, §4, §5, §6
For a further assay, the system named is KARPAS-422. It is filed as cell-based, human. Particulars: KARPAS-422, DLBCL (GCB), EZH2 MT (Y641N); 7 days culture then 3 days in assay plate. Here is the method: as §1, with “study. […]” for “study.”
as §3, with “On the day when the cells were seeded in a 96-well assay plate (day of seeding) and 3 days later (day of evaluation), a reaction was carried out using CellTiter-Glo 2.0 Assay reagent (Promega KK., #G9241) in accordance with the manual attached thereto.” left out, “%={1−(T−TS)/(C−CS)}×100 […]” for “%={1−(T−TS)/(C−CS)}×100”

The subject of another assay is MV-4-11. It is filed as cell-based, human. Particulars: MV-4-11, AML, MLL-AF4, FLT3-ITD; 7 days culture then 3 days in assay plate. Here is the method: as §1, with “study. […]” for “study.”
as §3, with “On the day when the cells were seeded in a 96-well assay plate (day of seeding) and 3 days later (day of evaluation), a reaction was carried out using CellTiter-Glo 2.0 Assay reagent (Promega KK., #G9241) in accordance with the manual attached thereto.” left out, “%={1−(T−TS)/(C−CS)}×100 […]” for “%={1−(T−TS)/(C−CS)}×100”

Regarding `Cc1cc(C)c(CNC(=O)c2cc(Cl)c3c(c2C)O[C@@](C)([C@H]2CC[C@H](N(C)C)CC2)O3)c(=O)[nH]1` [Compound A, (2R)-7-chloro-2-[trans-4-(dimethylamino)cyclohexyl]-N-[(4,6-dimethyl-2-oxo-1,2-dihydropyridin-3-yl)methyl]-2,4-dimethyl-1,3-benzodioxol-5-carboxamide p-toluenesulfonate], the “Cpd A GI100 (100% cell growth inhibitory concentration)” value with OCI-LY7 is 90 nM; in the assay with SU-DHL-2, 4.9 nM; in the assay with DB, more than 100 nM; in the assay with OCI-AML5, more than 5 µM; in the assay with REC-1 it was 170 nM; with DOHH-2, 17 nM. Further, the “Cpd A GI100 (100% cell growth inhibitory concentration)” value with OCI-LY19 was more than 1000 nM; in the assay with GRANTA-519, 53 nM; with MOLM13 it was 97 nM; in the assay on OCI-AML3 it was more than 1000 nM; in the assay on MOLM14, more than 1000 nM; with OCI-AML2, 647 nM. The “Cpd A GI100 (100% cell growth inhibitory concentration)” value is reported as 8.1 nM with JeKo-1, more than 1000 nM with OCI-LY3, 5.7 nM in the assay on KARPAS-422 and more than 100 nM in the assay with MV-4-11.
